23 compounds from patent US11884675B2, “Heterocyclic compounds as triggering receptor expressed on myeloid cells 2 agonists and methods of use” (AMGEN INC., priority 2020, dated 2024) can be followed below.

The target of the experiment is hTREM2 (Homo sapiens, UniProt Q9NZC2). Kind of experiment: TREM2 activity by cellular Syk phosphorylation (AlphaScreen/AlphaLISA) in TREM2/DAP12-HEK cells, used for Examples 1-305. The experiment is classed as cell-based. Also noted: expressed in transfected cells. Particulars: HEK293 Cells. The source says:
In vitro Measurement of Triggering Receptor Expressed on Myeloid Cells 2 activity using cellular phosphorylation of Spleen Tyrosine Kinase (“Syk”) Assays used for Examples 1-305
Pharmacological measurements of TREM2 signaling through DAP12 were made with TREM2 and DAP12 overexpressing HEK293 cells stable cell lines that had been single-cell cloned (“TREM2/DAP12-HEK”). The readout of the TREM2 signaling utilized Perkin Elmer AlphaScreen/AlphaLISA technology monitoring the phosphorylation levels of the Syk kinase. TREM2/DAP12-HEK cell lines were cultured in DMEM-F12 (Corning 10-092-CM) supplemented with 1X Penicillin/Streptomycin (Corning 30-002-CI), 1X GlutaMAX (Gibco 35050-061), and 10% Fetal Bovine Serum (Life Technologies 10099) referred to as “HEK Culture Medium”. Suspensions of TREM2/DAP12-HEK cells were prepared in HEK Culture Medium and dispensed into 384-well poly-D-lysine coated microplates (Corning 354661) at a density of 20,000 cells/well using a Multidrop Combi peristaltic microplate dispenser (Thermo), 25 μL volume of cell suspension/well. Plates containing cells were then incubated for 20 hours in a humidified cell culture incubator at 37° C. with 5% CO2 (Thermo). After incubation, culture medium was removed from all wells of each microplate and replaced with 20 μL of “Assay Buffer” comprised of DMEM-F12 (Corning 10-092-CM) supplemented with 1X Penicillin/Streptomycin (Corning 30-002-CI) and 0.1% Pluronic F-68 Polyol (MP Biomedical 092750049) using a Bravo 384-well pipette-based liquid handling system (Agilent). Assay Buffer contained diluted test articles (in 1% final DMSO concentration for compounds) or 100 nM anti-human/mouse TREM2 antibody (R&D Systems MAB17291) as a positive control, or 100 nM or rat IgG2B isotype Ab as a negative control (R&D Systems MAB0061). The plates were incubated with test articles and controls for 45 minutes at room temperature and then the medium was aspirated/removed from each well of the plates. A Multidrop Combi peristaltic liquid handler (Thermo) was used to dispense 15 μL/well of “Cell Lysis Immunoassay Buffer”. The Cell Lysis Immunoassay Buffer contained M-PER Mammalian Protein Extraction Reagent (Pierce/ThermoFisher 78505), 1X Halt Phosphatase Inhibitor Cocktail (ThermoFisher #78427), 0.1875 nM anti-phospho-Syk (Tyr525/526) (C87C1) rabbit mAb (Cell Signaling Technologies catalog #2710), and 1.5 nM biotinylated Mouse anti-human Syk (4D10) antibody (BD Biosciences, catalog #624008). Plates were incubated for 1 hour at room temperature after the addition of the Cell Lysis Immunoassay Buffer. The Multidrop Combi liquid handler was used to dispense 15 μL of AlphaScreen Acceptor Bead Solution containing 7.5 μg/mL anti-rabbit IgG (Fc specific) AlphaLISA Acceptor Beads (Perkin Elmer AL104R) in 1X Immunoassay buffer (Perkin Elmer AL000F) to each well of the microplates. The plates were incubated for 2 hours at room temperature. Following the incubation with the AlphaLISA Acceptor Bead Solution, a Multidrop Combi liquid handler (Thermo) was used to dispense 15 μL of AlphaScreen Donor Bead Solution containing 30 μg/mL of AlphaScreen Streptavidin Donor beads (Perkin Elmer 6760002B) in 1X Immunoassay buffer (Perkin Elmer AL000F) to each well of the microplates. Microplates were incubated for 2 hours protected from light sources as the AlphaScreen reagents are light sensitive. Once the final incubation was completed, an AlphaScreen signal was acquired from the donor and acceptor beads using an Envision high throughput multi-modal microplate reader (Perkin Elmer) calibrated to the plate type with the AlphaScreen mirror and filter-set in 384-well mode, 680 nanometer excitation wavelength. The total measurement time per well was 550 milliseconds with a 180 millisecond excitation time. […]

Some results are limits rather than exact numbers.

One may read the EC50 as the concentration at which the effect is half-maximal. Read a high EC50 as lower potency in that assay.

Sequence of hTREM2 (Q9NZC2 19-230): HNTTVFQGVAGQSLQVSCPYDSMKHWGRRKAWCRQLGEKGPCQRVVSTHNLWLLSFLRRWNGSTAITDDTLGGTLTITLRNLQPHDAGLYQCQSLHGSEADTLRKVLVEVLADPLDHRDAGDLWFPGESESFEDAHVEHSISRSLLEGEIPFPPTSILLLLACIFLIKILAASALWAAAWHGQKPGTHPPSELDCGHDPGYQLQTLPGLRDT
Sequence of hTREM2 (O43914 22-113 partner): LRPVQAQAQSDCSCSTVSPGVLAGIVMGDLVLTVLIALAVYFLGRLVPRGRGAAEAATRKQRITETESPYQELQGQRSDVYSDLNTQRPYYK

With `Cc1ccc2c(n1)nc(N1CCO[C@@H](c3cnn(C)c3)C1)nc2[C@H]1C[C@H](C(F)(F)F)C1` [Example 97, 7-methyl-2-((2S)-2-(1-methyl-1H-pyrazol-4-yl)-4-morpholinyl)-4-(trans-3-(trifluoromethyl)cyclobutyl)pyrido[2,3-d]pyrimidine], the EC50 was in the range of 500 to 3000 nM; the “hTREM2 Emax” value was “+ (Emax>45 and ≤100)”.
As for `Cc1ccc(-c2nc(N3CCO[C@@H](c4cnn(C5CC5)c4)C3)nc3nc(C)c(C)nc23)c(F)c1` [Example 38, 2-((2S)-2-(1-cyclopropyl-1H-pyrazol-4-yl)-4-morpholinyl)-4-(2-fluoro-4-methylphenyl)-6,7-dimethylpteridine], the EC50 is not above 50 nM; the “hTREM2 Emax” value was “+++ (Emax>150 and ≤250)”.
Turning to `Cc1ccc2c(-c3ccc(Cl)cc3F)nc([C@H]3CCO[C@@H](c4cnn(C5CC5)c4)C3)nc2n1` (single isomer, unassigned) [Example 197], the EC50 is not above 50 nM and the “hTREM2 Emax” value is “++++ (Emax>250)”.
For the compound `Cc1cc2c(OC[C@H]3CC3(C)C)nc(N3CCO[C@@H](c4cnn(C)c4)C3)nc2nc1C` [Example 111, 4-(((1S)-2,2-dimethylcyclopropyl)methoxy)-6,7-dimethyl-2-((2S)-2-(1-methyl-1H-pyrazol-4-yl)-4-morpholinyl)pyrido[2,3-d]pyrimidine], the EC50 lay in the range of 500 to 3000 nM; the “hTREM2 Emax” value was “+ (Emax>45 and ≤100)”.
Turning to `Cc1cc([C@H]2CN(c3nc4nc(C)c(C)nc4c([C@H]4C[C@@H](C(F)F)C4)n3)CCO2)ccn1` [Example 53, 4-(cis-3-(difluoromethyl)cyclobutyl)-6,7-dimethyl-2-((2S)-2-(2-methyl-4-pyridinyl)-4-morpholinyl)pteridine], the EC50 is not above 50 nM; the “hTREM2 Emax” value is “++ (Emax>100 and ≤150)”.
On to `Cc1nc2nc([C@@H]3CCO[C@H](c4cnn(C5CC5)c4)C3)nc(-c3ccc(Cl)cc3F)c2nc1C` (single isomer, unassigned) [Example 180], for which the EC50 is 50 to 500 nM; the “hTREM2 Emax” value is “+++ (Emax>150 and ≤250)”.
For `Cc1ccc2c(-c3ccc(Cl)cc3F)nc(N3CCO[C@@H](c4cnc(C)nc4)C3)nc2n1` (single isomer, unassigned) [Example 90], the concentration giving a half-maximal response (EC50) fell in the range of 50 to 500 nM; the “hTREM2 Emax” value was “+++ (Emax>150 and ≤250)”.
Consider `Cc1nc2cc([C@H]3CCO[C@H](c4cnn(C)c4)C3)nc(-c3ccc(Cl)cc3F)c2nc1C` (single isomer, unassigned) [Example 194], for which the EC50 was in the range of 500 to 3000 nM and the “hTREM2 Emax” value is given as “++++ (Emax>250)”.
Taken in the same sequence, the figures for `Cc1ccc(-c2nc([C@@H]3CCO[C@H](c4ccnc(C)c4)C3)nc3nc(C)c(C)cc23)c(F)c1` (single isomer, unassigned) [Example 223] were 50 to 500 nM and “++++ (Emax>250)”.
Take `Cc1nc2nc(N3CCO[C@@H](c4cnn(C5CC5)c4)C3)nc(-c3ccc(Cl)cc3F)c2nc1C` [Example 22, 4-(4-chloro-2-fluorophenyl)-2-((2S)-2-(1-cyclopropyl-1H-pyrazol-4-yl)-4-morpholinyl)-6,7-dimethylpteridine]: the EC50 was not above 50 nM and the “hTREM2 Emax” value was “++++ (Emax>250)”.
`Cc1ccc(-c2nc(N3CCO[C@@H](c4cnn(C5CC5)c4)C3)nc3nc(C)ccc23)c(F)c1` [Example 95, 2-((2S)-2-(1-cyclopropyl-1H-pyrazol-4-yl)-4-morpholinyl)-4-(2-fluoro-4-methylphenyl)-7-methylpyrido[2,3-d]pyrimidine]: the EC50 was not above 50 nM; the “hTREM2 Emax” value was “+++ (Emax>150 and ≤250)”.
As to `Cc1ncc([C@@H]2CN(c3nc(-c4ccc(Cl)cc4F)c4cc(C)c(C)nc4n3)CCO2)cn1` (single isomer, unassigned) [Example 106], the EC50 lay within 50 to 500 nM; the “hTREM2 Emax” value was “+++ (Emax>150 and ≤250)”.
For `Cc1cc([C@@H]2C[C@@H](c3nc(-c4ccc(F)cc4F)c4ccc(C)nc4n3)CCO2)ccn1` (single isomer, unassigned) [Example 221], the EC50 fell in the range of 500 to 3000 nM.
Consider `C[C@H]1CN(c2cc3c(c(-c4ccc(Cl)cc4F)n2)CN(C)C3=O)CCO1` [Example 118, 4-(4-chloro-2-fluorophenyl)-2-methyl-6-((2S)-2-methyl-4-morpholinyl)-2,3-dihydro-1H-pyrrolo[3,4-c]pyridin-1-one], for which the EC50 lay in the range of 500 to 3000 nM; the “hTREM2 Emax” value is “+ (Emax>45 and ≤100)”.
`Cc1nc2cc([C@@H]3CCO[C@@H](c4cnn(C)c4)C3)nc(-c3ccc(Cl)cc3F)c2nc1C` [Example 245, 5-(4-chloro-2-fluorophenyl)-2,3-dimethyl-7-((2R,4R)-2-(1-methyl-1H-pyrazol-4-yl)tetrahydro-2H-pyran-4-yl)pyrido[3,4-b]pyrazine]: the EC50 lay in the range of 3000 to 100000 nM and the “hTREM2 Emax” value was “++++ (Emax>250)”.
For `Cc1nc2nc([C@H]3CCO[C@@H](c4cnn(C)c4)C3)nc(C3CCC(F)(F)CC3)c2nc1C` (single isomer, unassigned) [Example 176], the EC50 is not above 50 nM; the “hTREM2 Emax” value was “+++ (Emax>150 and ≤250)”.
For `Cc1ccc2c(C3CCC(F)(F)CC3)nc(N3CCO[C@@H](c4cnn(C)c4)C3)nc2n1` [Example 141, 4-(4,4-difluorocyclohexyl)-7-methyl-2-((2S)-2-(1-methyl-1H-pyrazol-4-yl)-4-morpholinyl)pyrido [2,3-d]pyrimidine], the EC50 was 50 to 500 nM; the “hTREM2 Emax” value is “++ (Emax>100 and ≤150)”.
`Cc1cc(F)ccc1-c1nc(N2CCO[C@@H](c3cnn(C)c3)C2)nc2nc(C)c(C)nc12` [Example 59, 4-(4-fluoro-2-methylphenyl)-6,7-dimethyl-2-((2S)-2-(1-methyl-1H-pyrazol-4-yl)-4-morpholinyl)pteridine]: the EC50 lay within 50 to 500 nM; the “hTREM2 Emax” value is “+++ (Emax>150 and ≤250)”.
On to `Cc1ccc(-c2cc([C@H]3CCO[C@H](c4cnn(C)c4)C3)nc3nc(C)c(C)nc23)c(F)c1` [Example 266, 8-(2-fluoro-4-methylphenyl)-2,3-dimethyl-6-((2S,4S)-2-(1-methyl-1H-pyrazol-4-yl)tetrahydro-2H-pyran-4-yl)pyrido[2,3-b]pyrazine], for which the EC50 is 500 to 3000 nM and the “hTREM2 Emax” value is on record as “++++ (Emax>250)”.
Consider `Cc1cc([C@H]2C[C@H](c3nc(-c4ccc(F)cc4F)c4nc(C)c(C)nc4n3)CCO2)ccn1` (single isomer, unassigned) [Example 213], for which the EC50 lay in the range of 50 to 500 nM; the “hTREM2 Emax” value was “+++ (Emax>150 and ≤250)”.
`Cc1nc2nc([C@@H]3CCO[C@@H](c4cnn(C)c4)C3)nc(-c3ccc(Cl)cc3F)c2nc1C` [Example 179, 4-(4-chloro-2-fluorophenyl)-6,7-dimethyl-2-((2R,4R)-2-(1-methyl-1H-pyrazol-4-yl)tetrahydro-2H-pyran-4-yl)pteridine]: the EC50 was in the range of 500 to 3000 nM and the “hTREM2 Emax” value is reported as “++++ (Emax>250)”.
As for `Cc1cc([C@H]2C[C@@H](c3nc4nc(C)c(C)nc4c([C@H]4C[C@H](C(F)(F)F)C4)n3)CCO2)ccn1` (single isomer, unassigned) [Example 215], the EC50 is not above 50 nM; the “hTREM2 Emax” value was “+++ (Emax>150 and ≤250)”.
Turning to `Cc1cc([C@H]2CN(c3nc(-c4ccc(C(F)(F)F)nc4)c4nc(C)c(C)nc4n3)CCO2)cnn1` [Example 299, (S)-4-(6,7-dimethyl-4-(6-(trifluoromethyl)pyridin-3-yl)pteridin-2-yl)-2-(6-methylpyridazin-4-yl)morpholine], the EC50 is not above 50 nM; the “hTREM2 Emax” value is “+++ (Emax>150 and ≤250)”.
